Values joined by “and” are separate entries in the source; they are usually repeats but may differ in a detail not shown here. Equal entries are not always repeated.
Tests used:
THIK-1 G331x = target: T1, THIK-1 G331x (Homo sapiens, UniProt Q9HB14); assay: Inside-out excised patch recordings, oocytes, THIK-1 truncated at CASP8 cleavage site (G331x); format: cell-based
T1 construct: expressed in transfected cells; host or cells: Xenopus oocytes (mRNA injection)
T1 sequence (Q9HB14 1-330 limits assumed): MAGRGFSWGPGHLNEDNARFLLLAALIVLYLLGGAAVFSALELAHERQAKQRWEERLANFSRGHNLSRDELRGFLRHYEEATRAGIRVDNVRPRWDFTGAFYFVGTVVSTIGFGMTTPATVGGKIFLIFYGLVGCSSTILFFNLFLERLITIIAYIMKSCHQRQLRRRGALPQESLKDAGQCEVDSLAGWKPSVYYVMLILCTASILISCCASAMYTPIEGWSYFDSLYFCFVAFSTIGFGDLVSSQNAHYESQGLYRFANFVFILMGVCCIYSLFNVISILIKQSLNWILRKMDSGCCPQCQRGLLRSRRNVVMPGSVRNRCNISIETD
From the text: (§1) Human K2P13.1 THIK-1 (GenBank accession number: NM_022054) and human K2P12.1 THIK-2 (NM_022055.1) were used in this study. For functional expression studies, the respective K^+ channel subtype coding sequences were subcloned into the oocyte expression vector pSGEM or the dual-purpose expression vector pFAW[41] and verified by sequencing. All mutant channels were obtained by site-directed mutagenesis and verified by sequencing. To increase surface expression and macroscopic currents, measurements of THIK-2 channels used a mutated ER retention motif, (R11A R12A R14A R15A R16A; THIK-2*)[20]. Vector DNA was linearized with NheI or MluI, and mRNA was synthesized in vitro using the SP6 or T7 AmpliCap Max High Yield Message Maker Kit (Cellscript, USA) or HiScribe T7 ARCA mRNA Kit (New England Biolabs).
(§2) Two-electrode voltage–clamp (TEVC) studies were performed in Xenopus oocytes. All animal use conformed to the Guide for the Care and Use of Laboratory Animals (NIH Publication 85–23), and all experiments using Xenopus toads were approved by the local ethics panels. Oocytes were stored at 17 °C in ND96 recording solution composed of (in mM): 96 NaCl, 2 KCl, 1.8 CaCl2, 1 MgCl2, 5 HEPES (pH 7.5 adjusted with NaOH and HCl), supplemented with Na-pyruvate (275 mg L^–1), theophylline (90 mg L^–1) and gentamicin (50 mg L^–1). Oocytes were injected with 1 ng mRNA for WT or mutant channels, and were incubated for 24–48 h at 17 °C. Two-electrode voltage clamp recordings were then performed as previously described[42],[43]. For macroscopic patch–clamp measurements, oocytes were obtained as described above incubated at 17 °C in a solution containing (mM): 54 NaCl, 30 KCl, 2.4 NaHCO3, 0.82 MgSO4 ×7 H2O, 0.41 CaCl2, 0.33 Ca(NO3)2 ×4 H2O and 7.5 TRIS (pH 7.4 adjusted with NaOH and HCl) for 1–4 days before use. Excised patch recordings in inside-out configuration conditions were performed at room temperature. Patch pipettes were made from thick-walled borosilicate glass GB 200TF-8P (Science Products), had resistances of 0.2–0.5 MΩ (tip diameter, 10–25 µm) and filled with a pipette solution (in mM): 120 KCl, 10 HEPES and 3.6 CaCl2 (pH 7.4 adjusted with KOH and HCl). Intracellular bath solutions and compounds were applied to the cytoplasmic side of excised patches for the various K^+ channels through a gravity flow multi-barrel pipette system. The intracellular solution had the following composition (in mM): 120 KCl, 10 HEPES, 2 EGTA and 1 pyrophosphate (pH adjusted with KOH and HCl). Currents were recorded with an EPC10 amplifier (HEKA Electronics) and sampled at 10 kHz or higher, with filtering set to 3 kHz (–3 dB) or higher, as appropriate for sampling rate. For measurements of GPCR activation, whole-cell currents were recorded for THIK-1 in transiently transfected HEK-293 cells. Cells were stimulated by a ramp protocol between −100 and +60 mV (holding potential, −80 mV). The pipette solution was composed of (in mM): 140 KCl, 2 MgCl2, 1 CaCl2, 2.5 EGTA and 10 HEPES (pH 7.3 adjusted with KOH and HCl). The extracellular bath solution had the following composition (in mM): 135 NaCl, 5 KCl, 2 MgCl2, 2 CaCl2, 10 glucose and 10 HEPES pH (pH 7.3 adjusted with NaOH and HCl). Oxotremorine M (Oxo-M) was added to extracellular bath solution to obtain the final concentration. Single-channel currents were recorded with an Axopatch 200B amplifier through a Digidata 1440A digitizer (Molecular Devices). Data were filtered at 2 kHz and recorded at a 200-kHz sampling rate with the program Clampex (Molecular Devices). Pipette solution and bath solution for cell-attached recordings contained (in mM): 140 KCl, 2 MgCl2, 1 CaCl2 and 10 HEPES (pH 7.4 adjusted with KOH and HCl). For inside-out recordings, the bath solution contained (in mM): 140 KCl, 2 MgCl2, 1 CaCl2 and 10 HEPES (pH 7.2 adjusted with KOH and HCl). All experiments were conducted at room temperature. […]

THIK-1 I139A = target: T2, THIK-1 I139A (Homo sapiens, UniProt Q9HB14, I139A); assay: Inside-out excised patch recordings, oocytes, THIK-1 I139A mutant; format: cell-based; details: for τ of 1 mM TPenA block / τ of 1 mM TPenA release: I139A; for Normalized currents: THIK-1 I139A
T2 construct: expressed in transfected cells; host or cells: Xenopus oocytes (mRNA injection)
T2 sequence (Q9HB14 1-408 I139A): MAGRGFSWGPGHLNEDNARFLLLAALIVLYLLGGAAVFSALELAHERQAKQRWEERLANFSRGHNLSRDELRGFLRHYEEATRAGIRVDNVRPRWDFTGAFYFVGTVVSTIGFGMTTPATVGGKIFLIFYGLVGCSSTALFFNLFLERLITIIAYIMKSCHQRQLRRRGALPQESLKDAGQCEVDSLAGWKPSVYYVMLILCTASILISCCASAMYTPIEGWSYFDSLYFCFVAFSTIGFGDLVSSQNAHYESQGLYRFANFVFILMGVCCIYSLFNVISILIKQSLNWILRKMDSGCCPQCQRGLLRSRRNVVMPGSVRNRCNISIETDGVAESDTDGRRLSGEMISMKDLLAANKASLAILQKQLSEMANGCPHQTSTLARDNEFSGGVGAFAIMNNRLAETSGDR
From the text: as §1, §2

Compound `CCCCC[N+](CCCCC)(CCCCC)CCCCC` [TPenA, tetrapentylammonium] has a Normalized currents (THIK-1 G331x; 0.1 µM TPenA) of 1.00, a Normalized currents (THIK-1 G331x; 1 µM TPenA) of 1.00 and a Normalized currents (THIK-1 G331x; 10 µM TPenA) of 0.89. For the same compound, the Normalized currents (THIK-1 G331x; 100 µM TPenA) was 0.40, the Normalized currents (THIK-1 G331x; 1000 µM TPenA) was 0.09 and the Normalized currents (THIK-1 G331x; 2000 µM TPenA) was 0.05. For the same compound, the “τ of 1 mM TPenA block” value (THIK-1 I139A; individual recordings) was 0.150 s and 0.087 s and 0.338 s and 0.121 s and 0.235 s and 0.061 s and 0.088 s and 0.065 s and 0.063 s and 0.057 s and 0.086 s and 0.068 s and 0.117 s and 0.145 s and 0.215 s and 0.129 s and 0.101 s and 0.147 s and 0.113 s and 0.270 s and 0.151 s and 0.198 s and 0.133 s, the “τ of 1 mM TPenA release” value (THIK-1 I139A; individual recordings) was 1.320 s and 0.719 s and 0.852 s and 0.882 s and 0.634 s and 0.828 s and 0.460 s and 0.897 s and 0.583 s and 1.759 s and 0.311 s and 0.642 s and 0.558 s and 0.489 s and 0.435 s and 0.476 s and 0.409 s and 0.565 s and 0.635 s and 0.683 s and 0.647 s and 0.518 s and 0.501 s and the “τ of 1 mM TPenA block” value (THIK-1 I139A; mean) was 0.13 s. For the same compound, the “τ of 1 mM TPenA release” value (THIK-1 I139A; mean) was 0.68 s, the Normalized currents (THIK-1 I139A; TPenA 0.1 µM) was 1.00 and the Normalized currents (THIK-1 I139A; TPenA 1 µM) was 0.93. It also gave a Normalized currents (THIK-1 I139A; TPenA 4 µM) of 0.83, a Normalized currents (THIK-1 I139A; TPenA 15.6 µM) of 0.67 and a Normalized currents (THIK-1 I139A; TPenA 62.5 µM) of 0.44. For the same compound, the Normalized currents (THIK-1 I139A; TPenA 250 µM) was 0.22, the Normalized currents (THIK-1 I139A; TPenA 1000 µM) was 0.11 and the Normalized currents (THIK-1 I139A; TPenA 4000 µM) was 0.08.

From publication PMC12263422, “Cryo-EM structure of the human THIK-1 K2P K^+ channel reveals a lower Y gate regulated by lipids and anesthetics” (Nature Structural & Molecular Biology, 2025)
